Laboratory results from a melting point compilation (Tetko et al.; mined from patent text by program, amines drawn as free bases though some values may be those of a salt).

Question: With `O=c1n(CCCF)nnn1-c1ccc(OCc2ccc(F)cc2)cc1F` as the compound, how does the melting point read?
Answer: The melting point was 86 to 88 °C.

Question: With `OC1=C(C(=S)Nc2ccccc2)c2nc3ccccc3n2CC1` as the compound, how does the melting point read?
Answer: Its melting point is 224 to 227 °C.

Question: Which melting point does the source give for `NC(CCNCCC(N)=NO)=NO` here?
Answer: The melting point was 180 °C.

Question: Which melting point does the source give for `COCCCC(=O)c1cc(C(=O)O)c2cc(Cc3ccc(F)cc3)cnc2c1O` here?
Answer: Its melting point is 226 to 228 °C.

Question: With `CC(C)(C)c1cc(SCc2cccc(C#N)c2)cc(C(C)(C)C)c1O` as the compound, how does the melting point read?
Answer: The melting point was 61 to 63 °C.

Question: For `CCOC(=O)/C(=N\OC1CCSC1)c1csc(N)n1` (stereo not drawn), which melting point is on record?
Answer: Its melting point is 151 to 152 °C.

Question: For `CCNC(=O)/C=C(C)/C=C/C=C(C)/C=C/c1c(C)cc(OC(F)(F)F)c(C)c1C`, which melting point is on record?
Answer: Its melting point is 198 to 200 °C.

Question: With `NC(=O)Cc1cc(Oc2ccc3c(ccn3C(=O)Nc3ccc(CN4CCOCC4)c(C(F)(F)F)c3)c2)ncn1` as the compound, how does the melting point read?
Answer: Its melting point is 219 to 221 °C.

Question: Which melting point does the source give for `CC(C)(C)ON=Cc1ncn2c1[C@@H]1CCCN1C(=O)c1c(Cl)cccc1-2` here?
Answer: Its melting point is 215 to 216 °C.

Question: With `O=CNc1nc(CSc2ccncc2)cs1` as the compound, how does the melting point read?
Answer: The melting point was 182 to 184 °C.

Question: With `CCc1nc(Cl)cc(NN)n1` as the compound, how does the melting point read?
Answer: Its melting point is 147 to 150 °C.

Question: Which melting point does the source give for `CCCCCCC1(CCCCCC)c2cc(Br)ccc2-c2ccc(Br)cc21` here?
Answer: Its melting point is 64 to 66 °C.

Question: With `CC(C)c1nc2c([nH]1)C(=O)N1CCN=C1N2Cc1ccccc1Cl` as the compound, how does the melting point read?
Answer: Its melting point is 250 to 255 °C.

Question: For `CC(C)NC(=O)OC1SCN(c2ccccc2)C1=O` (stereo not drawn), which melting point is on record?
Answer: Its melting point is 130 to 132 °C.

Question: For `O=C1c2ccccc2COc2c(Br)cccc21`, which melting point is on record?
Answer: Its melting point is 127 to 130 °C.

Question: For `ClCc1coc(-c2ccsc2)n1`, which melting point is on record?
Answer: The melting point was 91 to 92 °C.

Question: For `COc1cc2c(cc1C(O)COc1ccc(C(=O)O)c(O)c1)C(C)(C)CCC2(C)C` (stereo not drawn), which melting point is on record?
Answer: The melting point was 178 to 179 °C.

Question: With `NC1=NC2(O)c3ccc(Cl)cc3CC2(F)S1` (stereo not drawn) as the compound, how does the melting point read?
Answer: Its melting point is 159 °C.

Question: With `CCOC(=O)c1cc(CN)c[nH]1` as the compound, how does the melting point read?
Answer: The melting point was 78 to 79 °C.

Question: With `Cc1c(C(C)O)ssc1=S` (stereo not drawn) as the compound, how does the melting point read?
Answer: Its melting point is 79 to 80 °C.

Question: For `CN1NC(c2ccccc2Cl)=NN=C1c1ccccc1Cl`, which melting point is on record?
Answer: The melting point was 115 to 116 °C.

Question: Which melting point does the source give for `O=C(O)/C=C/c1ccc(/C=C/c2ccncc2)nc1` here?
Answer: The melting point was over 250 °C.

Question: With `CC1(C)CCCC(C)(C)N1CCO` as the compound, how does the melting point read?
Answer: The melting point was 93 to 94 °C.

Question: For `CC(C)(C)c1ccc(C(=O)c2ccccc2O)c(C(C)(C)C)c1O`, which melting point is on record?
Answer: The melting point was 126 to 128 °C.

Question: For `COC(=O)c1nc(N2CCCC2)ccc1Oc1nc(OC)cc(OC)n1`, which melting point is on record?
Answer: Its melting point is 151 to 153 °C.

Question: With `O=C(NCc1c[nH]c(=S)n1[C@H]1CCc2c(F)cc(F)cc2C1)c1cccnc1` as the compound, how does the melting point read?
Answer: Its melting point is 218 to 221 °C.

Question: Which melting point does the source give for `Cc1cc(C(O)(C(F)(F)F)C(F)(F)F)cc(C)c1OCC(=O)O` here?
Answer: Its melting point is 118 to 120 °C.

Question: Which melting point does the source give for `Cc1ccc2c(c1C)OC(=O)C2c1ccc(C(C)C)cc1` (stereo not drawn) here?
Answer: Its melting point is 58 to 60 °C.

Question: For `CC(C)(C)c1ccc2c(c1)C(C(=O)O)=Cc1ccccc1O2`, which melting point is on record?
Answer: The melting point was 72 °C.

Question: Which melting point does the source give for `O=C(CNCc1cccc(-c2ccc(CC(Nc3ccccc3C(=O)c3ccccc3)C(=O)O)cc2)c1)c1ccccc1` (stereo not drawn) here?
Answer: The melting point was 90 °C.

Question: Which melting point does the source give for `CCOC(=O)c1c(C)nc2c(nc(C)n2C)c1Cl` here?
Answer: Its melting point is 73 to 75 °C.

Question: Which melting point does the source give for `O=C1O[C@@H](CO)CN1c1ccc(I)c(F)c1` here?
Answer: Its melting point is 116 to 117 °C.

Question: With `CCC(=O)N1Cc2ccccc2C2(Cc3ccc(Cl)cc3O2)C1` (stereo not drawn) as the compound, how does the melting point read?
Answer: Its melting point is 106 to 107 °C.

Question: With `CN(C)c1ccc(NC(=O)N(CC2CCCCC2)C[C@H]2CC[C@H](CN(CC3CCCCC3)C(=O)Nc3ccc(N(C)C)cc3)CC2)cc1` as the compound, how does the melting point read?
Answer: Its melting point is 210 to 212 °C.

Question: With `N#Cc1nn(-c2c(Cl)cc(C(F)(F)F)cc2Cl)cc1-c1ccoc1Cl` as the compound, how does the melting point read?
Answer: Its melting point is 125 °C.

Question: With `O=C(Oc1ccccc1)N1Cc2ccccc2C(Oc2ccc(C(F)(F)F)cc2)C1` (stereo not drawn) as the compound, how does the melting point read?
Answer: Its melting point is 72 °C.

Question: With `C#CCSC(=NC(=O)OC)NC(=O)Nc1ccc(C)cc1` as the compound, how does the melting point read?
Answer: Its melting point is 161 to 162 °C.

Question: With `CCc1oc2ccccc2c1C(=O)c1ccc(OC(C)C(=O)O)cc1` (stereo not drawn) as the compound, how does the melting point read?
Answer: The melting point was 182 to 184 °C.

Question: Which melting point does the source give for `N#Cc1ccc(OCC(O)CN2C3CCC2CNC3)cc1` (stereo not drawn) here?
Answer: The melting point was 125 to 128 °C.

Question: With `Cc1cc(OC2SCC(O)C(O)C2O)c(-c2ccnn2-c2ccccc2)cc1Cl` (stereo not drawn) as the compound, how does the melting point read?
Answer: The melting point was 95 to 99 °C.

Question: For `O=CN1CCN(C2=C(Cl)C(=O)c3nsnc3C2=O)CC1`, which melting point is on record?
Answer: The melting point was 191 to 194 °C.

Question: With `CCN(c1nc2c(cc1CN(Cc1cc(C(F)(F)F)cc(C(F)(F)F)c1)c1nnn(C)n1)c(C)nn2C)C1CCCC1` as the compound, how does the melting point read?
Answer: The melting point was 43 to 44 °C.

Question: With `COc1cc(-c2cc(-c3ccc(-c4c(Cc5ccccc5)sc5ccccc45)cc3)ccc2OCC(=O)O)cc(OC)c1OC` as the compound, how does the melting point read?
Answer: The melting point was 93 to 94 °C.

Question: For `CN(C)C(=O)C1CC(c2ccc(-c3ccc(N4C[C@H](Cn5ccnn5)OC4=O)cc3F)cn2)=NO1` (stereo partly drawn), which melting point is on record?
Answer: Its melting point is 180 to 190 °C.

Question: For `COc1ccc(NN=C(Sc2cc(C)cc(C)c2)C(C)=O)cc1`, which melting point is on record?
Answer: The melting point was 165 to 167 °C.

Question: Which melting point does the source give for `Cc1ncc(CN2CC=C(C#Cc3ccccc3)CC2)c(N)n1` here?
Answer: Its melting point is 187 to 188 °C.

Question: Which melting point does the source give for `COC(=O)[C@H](CC1=CCC(N)(O)C=C1)NC(=O)c1ccccc1` (stereo partly drawn) here?
Answer: Its melting point is 170 °C.

Question: For `CC(C)c1cccc(-n2cnc(CO)c2)c1`, which melting point is on record?
Answer: Its melting point is 76 to 77 °C.

Question: For `CCc1nc2c(N)cccc2o1`, which melting point is on record?
Answer: Its melting point is 46 °C.

Question: For `CCOC(=O)C1=C(C)NC(C)=C(C(=O)OCCN2CCC(C(c3ccccc3)c3ccccc3)CC2)C1c1cccc(Cl)c1Cl` (stereo not drawn), which melting point is on record?
Answer: The melting point was 81 to 85 °C.

Question: For `COc1ccc(CCNCCCOc2ccccc2NC(=O)c2cccc3[nH]ccc23)cc1OC`, which melting point is on record?
Answer: The melting point was 182 °C.

Question: With `COc1ccc(-c2cc(CO)c(=O)n(CC=Cc3ccc(Cl)cc3)n2)cc1F` as the compound, how does the melting point read?
Answer: The melting point was 158 to 160 °C.

Question: Which melting point does the source give for `O=C1NC(=O)C(S(=O)(=O)c2ccc(F)cc2)S1` (stereo not drawn) here?
Answer: Its melting point is 190 to 196 °C.

Question: With `CC(C)(CO)c1cc(NC(=O)C(C)(C)S(=O)(=O)CCC(F)(F)F)on1` as the compound, how does the melting point read?
Answer: Its melting point is 162 to 163 °C.

Question: With `C=CCOC(=O)c1ccc(N=C(OC)c2ccc(OC)c(C34CC5CC(CC(C5)C3)C4)c2)cc1` as the compound, how does the melting point read?
Answer: Its melting point is 85 to 87 °C.

Question: Which melting point does the source give for `CC(C)(C)OC(=O)N1CCN(c2ccc(Oc3cc(Cl)ccc3N)cc2)CC1` here?
Answer: Its melting point is 95 to 96 °C.

Question: For `O=C(CSc1ncc(Br)cn1)c1ccccc1`, which melting point is on record?
Answer: Its melting point is 107 to 109 °C.

Question: Which melting point does the source give for `Cc1ccc2c(c1)-n1ccc3c1=C(CCC=3)c1nccn1-2` here?
Answer: Its melting point is 175 °C.

Question: For `NS(=O)(=O)c1ccc(NC(=O)c2ccccc2SSCC(O)CO)cc1` (stereo not drawn), which melting point is on record?
Answer: Its melting point is over 260 °C.

Question: Which melting point does the source give for `CCc1nnc(CCCOc2c(C)cc(-c3noc(C(F)F)n3)cc2C)s1` here?
Answer: The melting point was 83 to 84 °C.

Question: With `COC1Cc2ccc(F)cc2/C1=C/C(N)=O` (stereo not drawn) as the compound, how does the melting point read?
Answer: Its melting point is 128 to 130 °C.

Question: For `CN(C)CCc1c(C(=O)O)[nH]c2ccc(C[C@H]3COC(=O)N3)cc12`, which melting point is on record?
Answer: Its melting point is 230 °C.

Question: With `CCCc1cccc(Cl)c1C(=O)N[C@@H](Cc1ccc(-c2c(C)n(C)c(=O)n(C)c2=O)cc1)C(=O)O` as the compound, how does the melting point read?
Answer: The melting point was 205 to 209 °C.

Question: Which melting point does the source give for `O=C(c1cccnc1)N1CCC(c2ccccc2[N+](=O)[O-])=N1` here?
Answer: The melting point was 123 to 125 °C.

Question: Which melting point does the source give for `COc1cccc(NC(=O)NC2C(=O)N(CC34CC5CC(CC(C5)C3)C4)c3ccccc3N(c3ccccc3)C2=O)c1` (stereo not drawn) here?
Answer: Its melting point is 267 to 268 °C.

Question: For `CC(=O)NCCCCc1ccc(C(=O)C(C)Cl)cc1` (stereo not drawn), which melting point is on record?
Answer: The melting point was 66 to 67 °C.

Question: For `N#Cc1cccc(-n2c(=O)c(CCCc3ccncc3)cc3cccnc32)c1`, which melting point is on record?
Answer: The melting point was 202 to 204 °C.

Question: With `COc1cn(C(C)(C)C(=O)N(C)C)nc1-c1ccccc1` as the compound, how does the melting point read?
Answer: The melting point was 114 to 116 °C.

Question: Which melting point does the source give for `CCSC1=NCC(=O)N1c1ccc(C)c(Cl)c1` here?
Answer: The melting point was 133 to 135 °C.

Question: For `COC(=O)C1C(=O)CCN(N2CCCCC2)C1=O` (stereo not drawn), which melting point is on record?
Answer: The melting point was 157 to 159 °C.

Question: With `O=C(NCc1ccc(F)cc1)c1nc2n(c(=O)c1OCc1ccccc1)CCN2c1ccccc1` as the compound, how does the melting point read?
Answer: Its melting point is 199 to 200 °C.

Question: For `CCOC(=O)NC(=S)Nc1ncc(C(F)(F)F)cc1F`, which melting point is on record?
Answer: The melting point was 99 to 100 °C.

Question: Which melting point does the source give for `N#Cc1ccc(NC(=O)NCCCCl)cc1` here?
Answer: The melting point was 95 to 97 °C.
